Measurements from patent publication US20040259926A1, “3-Aryloxy and 3-heteroaryloxy substituted benzo[b]thiophenes as therapeutic agents” (priority 2003, published 2004).
pIC50: −log10 of the molar value.

The compounds below were run against T1, PI3Kγ (recombinant p101/p110γ protein) (Homo sapiens, UniProt P48736) (assay: PI3Kγ In Vitro Kinase Assay). Conditions: purified recombinant p101/p110γ with G protein β1/γ2 subunits; 20 μM ATP, [γ-32P-ATP]; 25 μM PIP2 lipid micelles; 20 minutes at room temperature.
T1 construct: HA; made in house; host or cells: Spodoptera frugiperda (Sf9) cells, baculovirus co-infection
T1 sequence (P48736 whole entry, species assumed): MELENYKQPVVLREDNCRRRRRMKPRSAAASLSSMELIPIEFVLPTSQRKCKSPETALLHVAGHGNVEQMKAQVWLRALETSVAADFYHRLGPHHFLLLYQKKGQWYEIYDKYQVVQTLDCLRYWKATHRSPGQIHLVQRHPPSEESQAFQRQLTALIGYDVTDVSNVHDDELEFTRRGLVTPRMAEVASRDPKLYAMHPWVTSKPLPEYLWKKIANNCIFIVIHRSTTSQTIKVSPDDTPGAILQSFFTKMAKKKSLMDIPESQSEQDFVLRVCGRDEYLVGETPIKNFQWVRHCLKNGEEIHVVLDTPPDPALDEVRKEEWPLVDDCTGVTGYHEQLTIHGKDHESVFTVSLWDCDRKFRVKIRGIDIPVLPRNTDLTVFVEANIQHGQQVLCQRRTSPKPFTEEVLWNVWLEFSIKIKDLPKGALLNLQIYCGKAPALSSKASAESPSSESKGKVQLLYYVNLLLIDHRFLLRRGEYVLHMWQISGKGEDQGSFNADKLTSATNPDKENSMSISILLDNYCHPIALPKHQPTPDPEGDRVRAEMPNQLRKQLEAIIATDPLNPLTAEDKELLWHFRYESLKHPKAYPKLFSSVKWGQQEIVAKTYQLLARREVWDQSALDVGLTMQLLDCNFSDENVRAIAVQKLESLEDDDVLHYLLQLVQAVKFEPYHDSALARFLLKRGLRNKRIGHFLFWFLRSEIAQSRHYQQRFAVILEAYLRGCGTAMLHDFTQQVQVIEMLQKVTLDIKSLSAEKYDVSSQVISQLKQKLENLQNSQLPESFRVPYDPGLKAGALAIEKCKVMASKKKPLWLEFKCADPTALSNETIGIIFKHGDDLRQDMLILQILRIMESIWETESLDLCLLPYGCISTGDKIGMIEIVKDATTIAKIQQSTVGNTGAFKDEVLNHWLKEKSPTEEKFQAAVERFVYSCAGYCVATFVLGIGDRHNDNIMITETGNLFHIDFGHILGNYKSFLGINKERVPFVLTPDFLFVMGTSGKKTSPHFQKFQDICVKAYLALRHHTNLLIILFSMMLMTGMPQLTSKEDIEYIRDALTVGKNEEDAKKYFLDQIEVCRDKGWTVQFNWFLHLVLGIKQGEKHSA
T1 sequence (Q8WYR1 whole entry partner, species assumed): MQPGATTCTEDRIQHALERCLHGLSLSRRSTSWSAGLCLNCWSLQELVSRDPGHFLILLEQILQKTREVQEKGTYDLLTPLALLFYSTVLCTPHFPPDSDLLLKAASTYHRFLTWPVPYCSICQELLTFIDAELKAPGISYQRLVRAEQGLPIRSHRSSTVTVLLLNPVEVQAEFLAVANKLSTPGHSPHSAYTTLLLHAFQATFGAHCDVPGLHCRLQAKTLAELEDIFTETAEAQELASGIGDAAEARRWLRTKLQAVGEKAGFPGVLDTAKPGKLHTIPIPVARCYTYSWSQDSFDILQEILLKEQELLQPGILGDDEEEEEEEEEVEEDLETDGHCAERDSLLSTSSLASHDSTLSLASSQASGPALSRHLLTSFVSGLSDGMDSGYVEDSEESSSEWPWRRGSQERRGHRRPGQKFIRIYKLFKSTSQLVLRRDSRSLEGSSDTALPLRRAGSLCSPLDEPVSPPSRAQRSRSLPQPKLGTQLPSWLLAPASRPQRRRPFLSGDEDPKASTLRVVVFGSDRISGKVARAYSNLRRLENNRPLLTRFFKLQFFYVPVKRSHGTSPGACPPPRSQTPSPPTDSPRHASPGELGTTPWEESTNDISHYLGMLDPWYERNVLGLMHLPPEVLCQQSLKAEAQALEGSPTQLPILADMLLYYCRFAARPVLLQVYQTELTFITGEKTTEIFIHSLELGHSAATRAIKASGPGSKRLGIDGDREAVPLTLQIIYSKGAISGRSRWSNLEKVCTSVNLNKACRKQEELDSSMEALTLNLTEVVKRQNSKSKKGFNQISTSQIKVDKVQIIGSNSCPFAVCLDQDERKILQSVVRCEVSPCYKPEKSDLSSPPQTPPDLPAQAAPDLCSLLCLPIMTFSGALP
Type: biochemical
Protocol: Spodtera frugiperda cells, grown in ESF921 media, were coinfected with baculovirus expressing a glu-tagged […] and baculovirus expressing an HA-tagged p110γ, at a 3:1 ratio of p101 baculovirus to p110γ baculovirus. Sf9 cells were grown to 1×10^7 total cells/mL in 10 L bioreactors and harvested 48-72 hours post infection. Samples of infected cells were then tested for expression of p101/p110γ PI3 kinase by immunoprecipitation and Western Blot analysis methods (see below).
To purify PI3Kγ, 4 volumes of room temperature hypotonic lysis buffer (1 mM MgCl2, 1 mM DTT, 5 mM EGTA, 1 mM Pefabloc, 0.5 μM aprotinin, 5 μM leupeptin, 2 μM pepstatin, 5 μM E64, pH 8) per gram of cell paste, was poured onto frozen cell pellets with stirring, then lysed in a nitrogen “bomb” at 400 psi (599 HC T316, Parr Instrument Co, Moline, Ill.). NaCl was added to 150 mM, and sodium cholate was added to 1% and mixed for another 45 minutes. The lysates were clarified by centrifugation for 25 minutes at 14,000 rpm. The lysates were then loaded over anti-glu-linked Protein-G Sepaharose beads (Covance Research Products, Richmond, Calif.) using 20 mL resin/50 g cell paste. The column was washed with 15 volumes of wash buffer (1 mM DTT, 0.2 mM EGTA, 1 mM Pefabloc, 0.5 μM aprotinin, 5 μM leupeptin, 2 μM pepstatin, 5 μM E64, 150 mM NaCl, 1% sodium cholate, pH 8). PI3Kγ was eluted with 6 column volumes of wash buffer that contain 100 μg/mL of a peptide that competes for binding of the glu tag. The column fractions with the eluted protein (determined by taking OD280 readings) were collected and dialyzed in 0.2 mM EGTA, 1 mM DTT, 1 mM Pefabloc, 5 μM leupeptin, 0.5% sodium cholate, 150 mM NaCl, and 50% glycerol, pH 8. The fractions were stored at −80° C. until further use.
Spodtera frugiperda cells were coinfected with baculovirus expressing a glu-tagged G protein β1 and baculovirus expressing a G protein β2 at a 1:1 ratio of glu-tagged G protein β1 baculovirus to G protein β2 baculovirus. Sf9 cells are grown in 10 L bioreactors and harvested 48-72 hours post infection. Samples of infected cells were tested for G protein β1/β2 expression by Western Blot analysis, as described below. Cell lysates were homogenized and loaded onto a column of glu-tagged beads as in Biological Example 1 and competed off the column with a glu peptide and processed as described in Biological Example 1.
The inhibitory properties of the compounds in Table 1 were assayed in an in vitro PI3K assay. In a 96-well polypropylene plate, each well was spotted with 2 μL of 50 times the desired final concentration of compound in DMSO. Purified recombinant p101/p110γ protein (0.03 μg; ˜2.7 nM) and G protein β1/γ2 subunits (0.09 μg; ˜57.7 nM) for each reaction was combined in the assay buffer (30 mM HEPES, 100 mM NaCl, 1 mM EGTA, and 1 mM DTT). ATP and [γ-^32P-ATP] (0.09 μCi) were added to this mixture so that the final ATP concentration in the reaction was 20 μM. Lipid micelles were formed by sonicating phosphatidylinositol-4,5-diphosphate (PIP2), phosphatidylethanolamine (PE), and Na-cholate in the assay buffer for 10 minutes, adding MgCl2 and incubating on ice for 20 minutes, for final concentrations of 25 μM PIP2, 300 μM PE, 0.02% Na-cholate, and 10 mM MgCl2 in the reaction. The reactions were started by adding equal volumes lipid and enzyme mixture in a total volume of 50 μL, allowed to run for 20 minutes at room temperature, and stopped with 100 μL 75 mM H3PO4. The lipid product was transferred to a glass fiber filter plate and washed with 75 mM H3PO4 several times. The presence of radioactive lipid product (PIP3) was measured by adding Wallac Optiphase mix to each well and counting in a Wallac 1450 Trilux plate reader (PerkinElmer Life Sciences Inc., Boston, Mass. 02118). The IC50 for each compound tested is reported in μM in Table 1: […]
In the case of `COc1cc2c(Oc3ccc(-c4ccccc4)cc3)c(C(=O)Nc3nn[nH]n3)sc2cc1C` [Example B.20, 3-(Biphenyl-4-yloxy)-5-methoxy-6-methyl-benzo[b]thiophene-2-carboxylic acid (2H-tetrazol-5-yl)-amide], the pIC50 was 7.11. Compound `COc1cc2c(Oc3ccc(OC4CCCCCC4)cc3)c(C(=O)Nc3nn[nH]n3)sc2cc1C` [Example B.21, 3-(4-Cycloheptyloxy-phenoxy)-5-methoxy-6-methyl-benzo[b]thiophene-2-carboxylic acid (2H-tetrazol-5-yl)-amide] has a pIC50 of 7.37. For `COc1cc2c(Oc3ccc(OC4CCCCC4)cc3)c(C(=O)Nc3nn[nH]n3)sc2cc1C` [Example B.22, 3-(4-Cyclohexyloxy-phenoxy)-5-methoxy-6-methyl-benzo[b]thiophene-2-carboxylic acid (2H-tetrazol-5-yl)-amide], the pIC50 was 7.74. With `COc1cc2c(Oc3ccc(Oc4ccccc4)cc3)c(C(=O)Nc3nn[nH]n3)sc2cc1C` [Example B.24, 5-Methoxy-6-methyl-3-(4-phenoxy-phenoxy)-benzo[b]thiophene-2-carboxylic acid (2H-tetrazol-5-yl)-amide] the pIC50 was 8.10. `COc1cc2c(Oc3ccc(CCSC(C)(C)C)cc3)c(C(=O)Nc3nn[nH]n3)sc2cc1C` [Example B.25, 3-[4-(2-tert-Butylsulfanyl-ethyl)-phenoxy)-5-methoxy-6-methyl-benzo[b]thiophene-2-carboxylic acid (2H-tetrazol-5-yl)-amide] was tested, and the pIC50 was 7.60. Work on `COc1cc2c(Oc3ccc(C4(C)CCCCC4)cc3)c(C(=O)Nc3nn[nH]n3)sc2cc1C` [Example B.26, 5-Methoxy-6-methyl-3-[4-(1-methyl-cyclohexyl)-phenoxy]-benzo[b]thiophene-2-carboxylic acid (2H-tetrazol-5-yl)-amide] yielded a pIC50 of 7.17. Work on `COc1cc2c(Oc3ccc(C4(C)CCC(C)CC4)cc3)c(C(=O)Nc3nn[nH]n3)sc2cc1C` (stereo not drawn) [Example B.27, 3-[4-(1,4-Dimethyl-cyclohexyl)-phenoxy]-5-methoxy-6-methyl-benzo[b]thiophene-2-carboxylic acid (2H-tetrazol-5-yl)-amide] yielded a pIC50 of 6.90. With `COc1cc2c(Oc3ccc(C4CCCCC4)cc3C)c(C(=O)Nc3nn[nH]n3)sc2cc1C` [Example B.28, 3-(4-Cyclohexyl-2-methyl-phenoxy)-5-methoxy-6-methyl-benzo[b]thiophene-2-carboxylic acid (2H-tetrazol-5-yl)-amide] the pIC50 was 7.21. `COc1cc2c(Oc3ccc(C4CCCCC4)c(C)c3)c(C(=O)Nc3nn[nH]n3)sc2cc1C` [Example B.29, 3-(4-Cyclohexyl-3-methyl-phenoxy)-5-methoxy-6-methyl-benzo[b]thiophene-2-carboxylic acid (2H-tetrazol-5-yl)-amide] was tested, and the pIC50 was 6.56. Compound `COc1cc2c(Oc3ccc(C(C)c4ccccc4)cc3)c(C(=O)Nc3nn[nH]n3)sc2cc1C` (stereo not drawn) [Example B.30, 5-Methoxy-6-methyl-3-[4-(1-phenyl-ethyl)-phenoxy]-benzo[b]thiophene-2-carboxylic acid (2H-tetrazol-5-yl)-amide] has a pIC50 of 7.54. With `COc1cc2c(Oc3ccc(N4CCCCC4)cc3)c(C(=O)Nc3nn[nH]n3)sc2cc1C` [Example B.31, 5-Methoxy-6-methyl-3-(4-piperidin-1-yl-phenoxy)-benzo[b]thiophene-2-carboxylic acid (2H-tetrazol-5-yl)-amide] the pIC50 was 7.06. `COc1cc2c(Oc3ccc(CC4CCCC4)cc3)c(C(=O)Nc3nn[nH]n3)sc2cc1C` [Example B.32, 3-(4-Cyclopentylmethyl-phenoxy)-5-methoxy-6-methyl-benzo[b]thiophene-2-carboxylic acid (2H-tetrazol-5-yl)-amide] gave a pIC50 of 7.44. Compound `COc1cc2c(Oc3ccc(OC4CCC4)cc3)c(C(=O)Nc3nn[nH]n3)sc2cc1C` [Example B.33, 3-(4-Cyclobutoxy-phenoxy)-5-methoxy-6-methyl-benzo[b]thiophene-2-carboxylic acid (2H-tetrazol-5-yl)-amide] has a pIC50 of 8.15. `COc1cc2c(Oc3cccc(OC4CCCC4)c3)c(C(=O)Nc3nn[nH]n3)sc2cc1C` [Example B.34, 3-(3-Cyclopentyloxy-phenoxy)-5-methoxy-6-methyl-benzo[b]thiophene-2-carboxylic acid (2H-tetrazol-5-yl)-amide] showed a pIC50 of 6.96. Compound `COc1cc2c(Oc3cncnc3N3CCCCC3)c(C(=O)Nc3nn[nH]n3)sc2cc1C` [Example B.37, 5-Methoxy-6-methyl-3-(4-piperidin-1-yl-pyrimidin-5-yloxy)-benzo[b]thiophene-2-carboxylic acid (2H-tetrazol-5-yl)-amide] has a pIC50 of 7.05. Compound `COc1cc2c(Oc3ccc(Br)cc3)c(C(=O)Nc3nn[nH]n3)sc2cc1C` [Example B.38, 3-(4-Bromo-phenoxy)-5-methoxy-6-methyl-benzo[b]thiophene-2-carboxylic acid (2H-tetrazol-5-yl)-amide] has a pIC50 of 7.80. `COc1cc2c(Oc3ccc(F)cc3)c(C(=O)Nc3nn[nH]n3)sc2cc1C` [Example B.39, 3-(4-Fluoro-phenoxy)-5-methoxy-6-methyl-benzo[b]thiophene-2-carboxylic acid (2H-tetrazol-5-yl)-amide] was tested, and the pIC50 was 7.74. For `COc1cc2c(Oc3ccc(Cl)cc3F)c(C(=O)Nc3nn[nH]n3)sc2cc1C` [Example B.40, 3-(4-Chloro-2-fluoro-phenoxy)-5-methoxy-6-methyl-benzo[b]thiophene-2-carboxylic acid (2H-tetrazol-5-yl)-amide], the pIC50 was 7.66. For `COc1cc2c(Oc3ccc(Cl)c(F)c3)c(C(=O)Nc3nn[nH]n3)sc2cc1C` [Example B.41, 3-(4-Chloro-3-fluoro-phenoxy)-5-methoxy-6-methyl-benzo[b]thiophene-2-carboxylic acid (2H-tetrazol-5-yl)-amide], the pIC50 was 6.87. Compound `COc1cc2c(Oc3cccc(C(F)(F)F)c3)c(C(=O)Nc3nn[nH]n3)sc2cc1C` [Example B.42, 5-Methoxy-6-methyl-3-(3-trifluoromethyl-phenoxy)-benzo[b]thiophene-2-carboxylic acid (2H-tetrazol-5-yl)-amide] has a pIC50 of 6.74. For `COc1cc2c(Oc3ccc([N+](=O)[O-])cc3)c(C(=O)Nc3nn[nH]n3)sc2cc1C` [Example B.43, 5-Methoxy-6-methyl-3-(4-nitro-phenoxy)-benzo[b]thiophene-2-carboxylic acid (2H-tetrazol-5-yl)-amide], the pIC50 was 7.25. `COc1cc2c(Oc3ccc(Cl)c(Cl)c3)c(C(=O)Nc3nn[nH]n3)sc2cc1C` [Example B.44, 3-(3,4-Dichloro-phenoxy)-5-methoxy-6-methyl-benzo[b]thiophene-2-carboxylic acid (2H-tetrazol-5-yl)-amide] was tested, and the pIC50 was 6.78. For `COc1cc2c(Oc3ccc(OC(F)(F)F)cc3)c(C(=O)Nc3nn[nH]n3)sc2cc1C` [Example B.45, 5-Methoxy-6-methyl-3-(4-trifluoromethoxy-phenoxy)-benzo[b]thiophene-2-carboxylic acid (2H-tetrazol-5-yl)-amide], the pIC50 was 7.77. `COc1cc2c(Oc3cccnc3)c(C(=O)Nc3nn[nH]n3)sc2cc1C` [Example B.46, 5-Methoxy-6-methyl-3-(pyridin-3-yloxy)-benzo[b]thiophene-2-carboxylic acid (2H-tetrazol-5-yl)-amide] was tested, and the pIC50 was 6.92.
